The source made the active and inactive calls. A value given as a limit tells only on which side of the number the result lay.

The target in one test is Cytochrome P450 3A4 (Homo sapiens, UniProt P08684). The note with it: Potency.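 Also: confirmatory qHTS run detecting inhibitors and substrates of CYP3A4.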
The target of a further test is Cytochrome P450 2C9 (Homo sapiens, UniProt P11712). The note with it: Potency.
Another test deals with Estrogen receptor beta (Homo sapiens, UniProt Q92731). The test is described as follows: ERβ–SRC-3 coactivator interaction inhibitors, confirmation, orthogonal assay, biochemical, ELISA, streptavidin-HRP readout (AID 1060). In general terms: In an ELISA, binding on a coated surface is turned into a signal by an enzyme label.
Test [1] is described as follows: THP-1 cell cytotoxicity, dose response, cytotoxicity control for Vif-APOBEC3G degradation inhibitor project, THP-1 cells (AID 1117359). It counts as functional. Conditions: Human immunodeficiency virus 1, THP-1.
A further test has as its target T1, Bcl-2-like protein 10 (Homo sapiens, UniProt Q9HD36).
T1 sequence (Q9HD36 whole entry): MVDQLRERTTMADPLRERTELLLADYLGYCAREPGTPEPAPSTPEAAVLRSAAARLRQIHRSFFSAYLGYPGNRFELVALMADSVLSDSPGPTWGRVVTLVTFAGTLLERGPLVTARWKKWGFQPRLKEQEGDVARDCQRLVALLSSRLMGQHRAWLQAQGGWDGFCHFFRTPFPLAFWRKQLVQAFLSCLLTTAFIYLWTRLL
The test is described as follows: displacers of TR3 peptide from Bcl-B, primary screen, selectivity assay for Bfl-1 inhibitor project, biochemical, fluorescence polarization, FITC-TR3 peptide (AID 748).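 Also: fluorescence polarization from a fluorescein-labelled TR3 peptide binding purified Bcl-B.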 On the technique in general: In fluorescence polarisation assays a small probe gives low polarisation when free and higher when bound to something large.

For the next test, the target named is T2, Protein Tat (Human immunodeficiency virus type 1 group M subtype B (isolate HXB2)(HIV-1), UniProt P04608).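 Also: tat binding to TAR RNA read out by fluorescence polarization.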
T2 sequence (P04608 whole entry): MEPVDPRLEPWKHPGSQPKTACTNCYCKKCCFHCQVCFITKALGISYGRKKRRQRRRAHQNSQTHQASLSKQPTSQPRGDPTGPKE
It counts as functional.

Test [2] concerns the target T3, Glutathione-S-transferase (Schistosoma japonicum, UniProt Q26513).
T3 sequence (Q26513 whole entry): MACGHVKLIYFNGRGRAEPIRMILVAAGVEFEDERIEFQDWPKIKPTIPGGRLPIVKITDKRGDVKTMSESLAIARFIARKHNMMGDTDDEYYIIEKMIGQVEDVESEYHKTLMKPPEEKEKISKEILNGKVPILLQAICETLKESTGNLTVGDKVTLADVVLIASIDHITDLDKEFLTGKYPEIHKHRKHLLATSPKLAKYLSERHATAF
The test is described as follows: biotin-GST/anti-GST TR-FRET signal inhibitors, dose response, artefact control for Vif-APOBEC3G degradation inhibitor project, biochemical (AID 1117362). It counts as functional. A general note: Time-resolved FRET reads energy transfer from a long-lived donor to a nearby acceptor.

For a further test, the system named is H4. The test is described as follows: Luminescence Cell-Based Dose Response HTS to Identify Activators of 5'UTR Stem-Loop Driven Prion Protein mRNA Translation in H4 Neuroglioblastoma Cells. [Related pubchem assays: 1829 (Project Summary), 1814 (Primary HTS)]. It counts as functional. The note with it: Homo sapiens.
A short description of test [3]: Luminescence Cell-Based Dose Confirmation HTS to Identify Activators of 5'UTR Stem-Loop Driven Alpha-Synuclein mRNA Translation in H4 Neuroglioblastoma Cells. [Related pubchem assays: 1829 (Project Summary), 1814 (Primary HTS)]. It counts as functional.
Test [4] is described as follows: Luminescence Cell-Based Dose Confirmation to Identify Activators of 5'UTR Stem-Loop Driven Alpha-Synuclein mRNA Translation in H4 Neuroglioblastoma Cells. [Related pubchem assays: 1829 (Project Summary), 1814 (Primary HTS)]. It counts as functional.
Test [5] is described as follows: Luminescence Cell-Based Dose Response HTS to Identify Activators of 5'UTR Stem-Loop Driven Prion Protein mRNA Translation in H4-C Neuroglioblastoma Cells. [Related pubchem assays: 1829 (Project Summary), 1814 (Primary HTS)]. It counts as functional.
The nature of test [6]: Luminescence Cell-Based Dose Response to Identify Activators of Luciferase Translation or Activity in H4-C Neuroglioblastoma Cells. [Related pubchem assays: 1829 (Project Summary), 1814 (Primary HTS)]. It counts as functional.
Test [7] in a line: Luminescence Cell-Based Dose Response HTS to Identify Activators of Luciferase Translation or Activity in H4 […] Cells. [Related pubchem assays: 1829 (Project Summary), 1814 (Primary HTS)]. It counts as functional.
Test [8] can be described thus: Luminescence Cell-Based Dose Retest to Confirm Activators of 5'UTR Stem-Loop Driven Alpha-Synuclein mRNA Translation in H4 Neuroglioblastoma Cells. [Related pubchem assays (depositor defined):AID1813, AID1829]. It counts as functional.
Test [9] in a line: Luminescence Cell-Based Dose Response to Identify Activators of 5'UTR Stem-Loop Driven Prion Protein mRNA Translation in H4-C Neuroglioblastoma Cells. [Related pubchem assays: 1829 (Project Summary), 1814 (Primary HTS)]. The format is functional.
Test [10] can be described thus: Luminescence Cell-Based Dose Response HTS to Identify Activators of Luciferase Translation or Activity in H4-C Neuroglioblastoma Cells. [Related pubchem assays: 1829 (Project Summary), 1814 (Primary HTS)]. It counts as functional.
Test [11] concerns the target DNA dC->dU-editing enzyme APOBEC-3G (Homo sapiens, UniProt Q9HC16). The test is described as follows: Dose Response confirmation of small molecule APOBEC3G DNA Deaminase Inhibitors via a fluorescence-based single-stranded DNA deaminase assay. [Related pubchem assays (depositor defined):AID493012, AID493028]. The format is functional.
For test [12], the target named is Glucose-6-phosphate 1-dehydrogenase (Homo sapiens, UniProt P11413). The test is described as follows: human G6PD enzyme inhibitors, dose response, selectivity assay for P. falciparum G6PD inhibitor project, biochemical, fluorescence (AID 504792). The format is functional.
Test [13] addresses G2/mitotic-specific cyclin-B1 (Homo sapiens, UniProt P14635). The test is described as follows: Counterscreen assay for inhibitors of Wee1 degradation: dose response cell-based assay to identify inhibitors of cyclin B degradation. [Related pubchem assays: 1410, 1321 ]. It counts as functional.
A further test deals with Wee1-like protein kinase (Homo sapiens, UniProt P30291). The test is described as follows: Dose Response Cell-based Assay for Inhibitors of Wee1 Degradation. [Related pubchem assays: 1410, 1321 ]. The format is functional.
Chain of Wee1-like protein kinase (P30291 whole entry): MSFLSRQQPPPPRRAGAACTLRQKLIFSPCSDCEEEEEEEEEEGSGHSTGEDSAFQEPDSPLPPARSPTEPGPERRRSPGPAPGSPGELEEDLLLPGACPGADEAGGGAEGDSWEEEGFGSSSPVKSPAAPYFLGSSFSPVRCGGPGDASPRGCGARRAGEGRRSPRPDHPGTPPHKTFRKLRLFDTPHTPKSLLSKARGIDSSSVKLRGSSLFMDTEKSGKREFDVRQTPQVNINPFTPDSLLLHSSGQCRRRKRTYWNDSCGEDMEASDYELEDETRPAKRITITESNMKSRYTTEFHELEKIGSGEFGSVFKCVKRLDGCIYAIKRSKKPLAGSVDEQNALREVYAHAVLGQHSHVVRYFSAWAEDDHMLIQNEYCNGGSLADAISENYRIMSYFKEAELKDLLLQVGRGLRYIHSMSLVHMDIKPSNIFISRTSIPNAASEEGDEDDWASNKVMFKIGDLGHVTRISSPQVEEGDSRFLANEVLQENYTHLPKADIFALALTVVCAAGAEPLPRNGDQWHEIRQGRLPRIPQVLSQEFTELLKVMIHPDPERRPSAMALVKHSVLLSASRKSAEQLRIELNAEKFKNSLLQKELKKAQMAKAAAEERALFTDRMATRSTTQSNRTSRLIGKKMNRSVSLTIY

Chain of Cytochrome P450 2C9 (P11712 whole entry): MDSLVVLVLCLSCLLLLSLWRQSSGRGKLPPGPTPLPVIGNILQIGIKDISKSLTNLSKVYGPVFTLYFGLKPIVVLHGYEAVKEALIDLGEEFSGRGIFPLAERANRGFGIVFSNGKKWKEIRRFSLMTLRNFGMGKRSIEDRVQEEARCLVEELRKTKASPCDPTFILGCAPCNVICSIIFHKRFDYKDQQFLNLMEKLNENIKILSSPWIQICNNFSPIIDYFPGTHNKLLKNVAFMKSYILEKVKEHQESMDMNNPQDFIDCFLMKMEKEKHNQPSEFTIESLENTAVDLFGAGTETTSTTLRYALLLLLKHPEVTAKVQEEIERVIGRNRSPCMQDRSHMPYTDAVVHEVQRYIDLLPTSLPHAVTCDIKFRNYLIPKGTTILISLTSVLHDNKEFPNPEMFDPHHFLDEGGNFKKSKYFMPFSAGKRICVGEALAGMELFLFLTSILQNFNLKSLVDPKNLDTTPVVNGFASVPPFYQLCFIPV
Chain of Cytochrome P450 3A4 (P08684 whole entry): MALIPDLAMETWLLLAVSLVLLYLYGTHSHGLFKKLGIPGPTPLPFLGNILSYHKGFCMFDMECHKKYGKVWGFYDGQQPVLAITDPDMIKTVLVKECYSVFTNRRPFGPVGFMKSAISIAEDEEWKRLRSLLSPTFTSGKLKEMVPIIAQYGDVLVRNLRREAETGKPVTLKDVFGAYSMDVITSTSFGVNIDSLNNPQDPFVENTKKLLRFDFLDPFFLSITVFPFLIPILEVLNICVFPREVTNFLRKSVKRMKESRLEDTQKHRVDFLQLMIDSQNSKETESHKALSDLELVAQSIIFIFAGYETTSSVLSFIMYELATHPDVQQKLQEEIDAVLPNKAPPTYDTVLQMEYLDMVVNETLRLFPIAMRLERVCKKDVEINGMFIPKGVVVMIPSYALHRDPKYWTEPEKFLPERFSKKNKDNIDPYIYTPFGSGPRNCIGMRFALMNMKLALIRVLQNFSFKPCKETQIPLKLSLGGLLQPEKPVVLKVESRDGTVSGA
Chain of Glucose-6-phosphate 1-dehydrogenase (P11413 whole entry): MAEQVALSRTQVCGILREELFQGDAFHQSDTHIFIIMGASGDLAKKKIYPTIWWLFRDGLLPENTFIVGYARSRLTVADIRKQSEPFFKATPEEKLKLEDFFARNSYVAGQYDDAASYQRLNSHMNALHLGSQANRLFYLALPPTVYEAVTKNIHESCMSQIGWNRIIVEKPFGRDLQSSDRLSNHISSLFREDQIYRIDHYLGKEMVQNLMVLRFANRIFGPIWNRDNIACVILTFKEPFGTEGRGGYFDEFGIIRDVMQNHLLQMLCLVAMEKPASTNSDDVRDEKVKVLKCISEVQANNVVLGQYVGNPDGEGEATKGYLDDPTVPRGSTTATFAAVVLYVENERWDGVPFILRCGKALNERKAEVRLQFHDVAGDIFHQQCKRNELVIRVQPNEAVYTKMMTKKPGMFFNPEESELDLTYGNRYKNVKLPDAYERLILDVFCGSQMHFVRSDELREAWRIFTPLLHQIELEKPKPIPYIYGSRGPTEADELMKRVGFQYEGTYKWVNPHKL
Chain of DNA dC->dU-editing enzyme APOBEC-3G (Q9HC16 whole entry): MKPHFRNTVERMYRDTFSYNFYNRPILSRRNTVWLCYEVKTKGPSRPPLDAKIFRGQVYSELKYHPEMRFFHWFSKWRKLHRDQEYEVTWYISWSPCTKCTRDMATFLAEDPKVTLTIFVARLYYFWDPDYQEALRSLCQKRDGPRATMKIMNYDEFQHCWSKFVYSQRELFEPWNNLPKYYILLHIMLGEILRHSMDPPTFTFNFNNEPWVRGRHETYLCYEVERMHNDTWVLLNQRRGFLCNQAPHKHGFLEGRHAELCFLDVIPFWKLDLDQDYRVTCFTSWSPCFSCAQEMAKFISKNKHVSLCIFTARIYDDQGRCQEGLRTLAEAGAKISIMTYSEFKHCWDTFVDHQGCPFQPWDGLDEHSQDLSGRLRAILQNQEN
Chain of G2/mitotic-specific cyclin-B1 (P14635 whole entry): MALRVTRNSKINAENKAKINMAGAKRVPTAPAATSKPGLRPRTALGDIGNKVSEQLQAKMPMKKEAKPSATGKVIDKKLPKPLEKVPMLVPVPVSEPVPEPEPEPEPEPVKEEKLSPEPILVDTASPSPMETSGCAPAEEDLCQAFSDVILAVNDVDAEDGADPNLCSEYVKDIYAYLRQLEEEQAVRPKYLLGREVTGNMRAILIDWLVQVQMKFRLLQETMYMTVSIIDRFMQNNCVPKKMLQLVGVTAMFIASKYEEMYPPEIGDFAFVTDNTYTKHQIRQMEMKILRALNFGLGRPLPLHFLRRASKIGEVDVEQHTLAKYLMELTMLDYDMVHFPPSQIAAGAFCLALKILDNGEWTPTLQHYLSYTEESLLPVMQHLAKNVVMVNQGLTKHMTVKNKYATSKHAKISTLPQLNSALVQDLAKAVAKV
Chain of Estrogen receptor beta (Q92731 whole entry): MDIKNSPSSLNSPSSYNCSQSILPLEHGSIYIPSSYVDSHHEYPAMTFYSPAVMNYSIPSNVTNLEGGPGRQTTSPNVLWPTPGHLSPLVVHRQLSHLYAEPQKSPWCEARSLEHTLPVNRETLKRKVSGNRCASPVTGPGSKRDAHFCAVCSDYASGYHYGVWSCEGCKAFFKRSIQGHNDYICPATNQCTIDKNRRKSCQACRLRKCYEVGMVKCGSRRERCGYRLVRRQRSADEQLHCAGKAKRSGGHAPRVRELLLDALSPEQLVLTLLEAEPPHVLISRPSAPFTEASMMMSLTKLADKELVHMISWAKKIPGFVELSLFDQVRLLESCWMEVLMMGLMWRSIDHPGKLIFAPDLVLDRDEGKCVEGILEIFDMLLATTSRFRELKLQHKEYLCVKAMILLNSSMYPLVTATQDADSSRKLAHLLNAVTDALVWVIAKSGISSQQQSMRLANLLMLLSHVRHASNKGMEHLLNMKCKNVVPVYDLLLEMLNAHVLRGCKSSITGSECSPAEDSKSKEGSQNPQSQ

A word on the AC50: it is the midpoint of the concentration-response curve, whichever way the signal moves. Take `N[C@@H](Cc1cc(O)c(O)cc1O)C(=O)O`: the AC50 on Cytochrome P450 3A4 is 15.8 µM (inconclusive); at Cytochrome P450 2C9, 39.8 µM (inconclusive).
One may read the IC50 as the concentration needed to halve the response being measured. As usually defined, the CC50 is the concentration at which the toxic effect on the cells reaches its halfway point. Regarding `CN(C)c1ccc(NC(=O)Cn2cc3c(n2)CCCC3)cc1`, the IC50 against Estrogen receptor beta was 326 nM (not active); at Bcl-2-like protein 10, 21.8 µM (active); on Protein Tat, > 100 µM (inconclusive); in [2] it was 22.1 µM (active). Besides, in [1], the 50% cytotoxic concentration (CC50) is 22.2 µM (active).
Usually EC50 stands for the concentration at which the effect is half-maximal. For the compound `O=C(COC(=O)Cn1cnc2ccccc21)Nc1cc2c(cc1Cl)C(=O)c1ccccc1C2=O`, the concentration for a half-maximal effect (EC50) was 40.4 µM (active) in the test with H4; < 100 nM (active) in test [3]; 1.19 µM (active) in test [4]; 2.52 µM (active) in test [5]; > 12 µM (not active) in test [6]; > 120 µM (not active) in test [7]. The values for the EC50 in test [8], in [9] and in test [10] were > 195 µM (inactive), > 12 µM (not active) and 609 nM (active), respectively.
On to `CC1CCC2C(=O)N3C(CCC(C)[C@H]3c3cccc(N4CCCC4=O)c3)C(=O)N2C1c1cccc(N2CCCC2=O)c1` (stereo partly drawn), for which the AC50 on Cytochrome P450 3A4 and on Cytochrome P450 2C9 was 2.51 µM (inconclusive) throughout.
As to `CN(C)c1ccc(NC(=O)CN2C(=O)CC(c3ccccc3)=Nc3ccccc32)cc1`, at Bcl-2-like protein 10, the IC50 is > 100 µM (inactive).
Take `CCC1(C)CC(C(N)=S)CCO1` (stereo not drawn): the IC50 in test [11] was 33.2 µM (active); in test [12], > 80 µM (inactive).
`COc1cc(C2=NOC(C(=O)NCc3cccs3)C2)cc(OC)c1OC` (stereo not drawn): the concentration for a half-maximal effect (EC50) (in [13]; at Wee1-like protein kinase) was > 49.7 µM (not active) in each case.
